Measured values published in patent publication US10201532B2, “Compounds and their use” (ALLECRA THERAPEUTICS GMBH, priority 2010, dated 2019).
Values joined by “and” are separate entries in the source; they are usually repeats but may differ in a detail not shown here. Equal values may be shown once. Read-outs that look alike come from different tables or passages of the source.

What was measured:
E. coli Ecoli233 (KPC3) = assay: Synergistic broth micro-dilution MIC; type: cell-based, Escherichia coli
[1] = tested on: K. pneumoniae NCTC 13438 (KPC3); assay: Synergistic broth micro-dilution MIC; type: cell-based, Klebsiella pneumoniae; details: BLI at 4 μg/mL
[2] = tested on: KPC-3 expressing E. coli (J53 R6206); assay: microbe, parasite or virus in culture; type: cell-based, Escherichia coli; details: for MIC of Cefadroxil in combination with BLI / MIC of Cefalonium in combination with BLI / MIC of Cefquinome in combination with BLI / MIC of Ceftiofur in combination with BLI: BLI at 4 μg/mL, E. coli J53 R6206; for MIC: Escherichia coli, read-out: MIC of BLI alone
Protocol: The β-lactam compound was tested for in vitro antibacterial activities by the broth micro-dilution or agar dilution method as specified in documents published by Clinical and Laboratory Standards Institute (CLSI), USA (formerly NCCLS). Approved standard M7-A7, January 2006, CLSI, Wayne, Pa., USA and M100-S18, January 2008, CLSI, Wayne, Pa., USA.
In agar dilution method briefly, stock solutions of the cephalosporins for veterinary use (e.g. 2 mg/mL) was made in water, 0.1M phosphate buffers or appropriate solvents and the solution was serially two fold diluted. Compound-1 was dissolved in water and Tazobactam (comparator BLI) in 0.1M phosphate buffer, pH 6.0 to get a solution of 1 mg/mL. Cephalosporins were screened in a concentration range of 0.5-32 μg/mL. For combination, Tazobactam or the Compound-1 described herein were tested at a fixed concentration of 4 μg/mL along with the cephalosporins concentration ranging from 0.5 to 32 μg/mL. […] The compound of formula (I) and Tazobactam were also tested individually. The bacterial inoculum was prepared by picking 3 to 5 well isolated bacterial colonies with the same morphological appearance from an 18-24 h old culture and adjusting the turbidity of the saline suspension to 0.5 McFarland turbidity standard equivalent to a bacterial population of ˜1×10^8 CFU per mL of suspension. The suspension was diluted 1:10 in saline to get a bacterial population of ˜1×10^7 CFU/mL as inoculum. This bacterial inoculum was inoculated onto the prepared petri dishes by a multipoint inoculator with each inoculum spot containing ˜1×10^4 CFU of the bacterial strain. The inoculated petri dishes were incubated at 35° C. in an ambient atmosphere for 18-20 h.

[3] = molecular target: T1, crude KPC-2 enzyme extract (Klebsiella pneumoniae, UniProt Q9F663); assay: β-Lactamase inhibitory assay with CENTA substrate; type: biochemical
T1 construct: enzyme extracts from KPC-2 producing and KPC-3 expressing bacterial gram negative strains were used; endogenous in cells; host or cells: KPC-2 producing gram-negative strain
Source text: (§1) The Compound-1 was subjected to β-lactamase inhibitory assay to determine IC50 and to compare that with the comparator BLI agents as described elsewhere (Bebrone et. al., Antimicrob. Agents. Chemother, 2001, 45(6): 1868-1871; Jamieson et. al, Antimicrob. Agents. Chemother, 2003, 47(5): 1652-1657). Briefly, enzyme extracts from KPC-2 producing and KPC-3 expressing bacterial gram negative strains were used to study the β-lactamase inhibitory activity and determination of IC50 using CENTA as the substrate for β-lactamase.

[4] = molecular target: crude KPC-3 enzyme extract (UniProt Q9F663, H272Y, species not given); assay: β-Lactamase inhibitory assay with CENTA substrate; type: biochemical; details: also headed KPC2
Source text: as §1

[5] = tested on: KPC2 K. pneumoniae ATCC BAA 1705; assay: Mice systemic infection model; type: in vivo; details: Klebsiella pneumoniae
Protocol: Female Swiss Albino mice, weighing 18-22 g were used for all studies. For each dose group, 5 or 6 mice were included. Study protocols were reviewed and approved by Institutional Animal Ethical Committee, Orchid Research Laboratories Limited. Mice were housed in individually ventilated cages provided with food and water ad libitum, throughout the study period. From overnight culture in Brain-Heart Infusion agar medium, challenge inoculum with required bacterial density was prepared in normal saline containing Hog gastric mucin. In studies involved with doripenem, washed bacterial cells was used. Each mouse was infected […] inoculum by intra-peritoneal injection.
Infected mice were dosed sub-cutaneously, with drug preparations at three different time points post-infection.
Imipenem with BLI combinations: Increasing concentrations of Imipenem as single agent or in combination with fixed concentration of BLIs were used to dose infected mice, sub-cutaneously. In this experiment Imipenem was always administered along with cilastatin. Doripenem with BLI combinations: Increasing concentrations of doripenem as single agent or in combination with fixed concentration of BLIs were used to dose infected mice, sub-cutaneously.
Survival of the treated mice were monitored twice a day, up to 7 days post-infection. Efficacy dose 50 (ED50) was calculated by Reed and Muench method (Reed, L. J.; Muench, H. “A simple method of estimating fifty percent endpoints”. The American Journal of Hygiene, 1938, 27: 493-497.).

[6] = tested on: KPC2 K. pneumoniae ATCC BAA 1705; assay: Neutropenic mice thigh infection model (human adapted model); type: in vivo; details: for Bacterial load (range), Doripenem + BLI: Doripenem 70 mg/kg fractionated + BLI 35 mg/kg bolus, end point 8 h
Protocol: Female Swiss Albino mice weighing 24-30 g were used for all studies. Study protocols were reviewed and approved by Institutional Animal Ethical Committee, Orchid Research Laboratories Limited. Mice were rendered neutropenic by intra-peritoneal cyclophosphamide injections. Log phase culture in brain heart infusion broth was injected in to mice thighs. Imipenem or Doripenen alone or in combination were administered sub-cutaneously in decreasing fractionated doses every 15 minutes over the period of 5.5 h (Flückiger, U. et al. “Integration of pharmacokinetics and pharmacodynamics of Imipenem in a human-adapted mouse model’. Antimicrobial Agents and Chemother, 1991, 35(9): 1905-1910). The Compound-1 or tazobactam was administered sub-cutaneously as bolus dose at the start of dosing. Efficacy end point was 6 h in Imipenem studies and 8 h in Doripenen studies.
Three experiments were carried out where Doripenen alone or in combination with compound-1 or tazobactam (two experiments) were evaluated. Doripenem 70 mg/kg was administered in fractionated doses over the period of 5.5 h (Fluckiger, U. et al. “Integration of pharmacokinetics and pharmacodynamics of Imipenem in a human-adapted mouse model’. Antimicrobial Agents and Chemother., 1991, 35(9): 1905-1910). Compound-1 or tazobactam was administered as bolus dose at initiation of therapy. Efficacy end point was 8 h after initiation of therapy.

[7] = tested on: KPC2 K. pneumoniae ATCC BAA 1705; assay: Mice systemic infection model; type: in vivo; details: sub-cutaneous, printed as piperacillin:BLI dose
[8] = BAA1705, 168 h, read-out: ED50, single agent
[9] = BAA1705, BLI fixed at 64 mg/kg, mice, sub-cutaneous, with cilastatin, read-out: ED50 of Imipenem + BLI

| Compound | MIC of Imipenem in combination with BLI (E. coli Ecoli233 (KPC3); BLI at 4 μg/mL) [µg/mL] | MIC of Imipenem in combination with BLI (E. coli Ecoli233 (KPC3); BLI at 16 μg/mL) [µg/mL] | MIC of Imipenem in combination with BLI [1] [µg/mL] | MIC of Cefadroxil in combination with BLI [2] [µg/mL] | MIC of Cefalonium in combination with BLI [2] [µg/mL] | MIC of Cefquinome in combination with BLI [2] [µg/mL] | MIC of Ceftiofur in combination with BLI [2] [µg/mL] | MIC [2] [µg/mL] | IC50 [3] [µM] | IC50 [4] [µM] | ED50 [5, 8] [mg/kg] | ED50 [5, 9] [mg/kg] | Bacterial load (range), Doripenem + BLI [6] | Bacterial load (range), Doripenem + BLI ([6]; listed as compound-1) | Bacterial load, Imipenem + BLI ([6]; Imipenem 140 mg/kg fractionated + BLI 140 mg/kg bolus, end point 6 h) [CFU/thigh] | ED50 of Piperacillin:BLI at 1:1 ratio [7] | ED50 of Piperacillin:BLI at 1:1 ratio ([7]; listed as tazobactam) [mg/kg] |
| --- | --- | --- | --- | --- | --- | --- | --- | --- | --- | --- | --- | --- | --- | --- | --- | --- | --- |
| C[n+]1ccn(C[C@@]2(C)[C@H](C(=O)[O-])N3C(=O)C[C@H]3S2(=O)=O)n1 [Compound-1, 1-{[(2S,3S,5R)-2-Carboxy-3-methyl-4,4,7-trioxo-4-thia-1-azabicyclo[3.2.0]hept-3-yl]methyl}-3-methyl-1H-1,2,3-triazol-3-ium] | 4 | 1 | 32 | >32 | 4 | <0.5 | <0.5 | > 16 | 190 | 10.7 | > 64 | 2.2 | 7.9E+05-1.4E+06 CFU/thigh | 7.9E+05-1.3E+06 CFU/thigh | 2.1E+05 | 50 mg/kg and 50:50 mg/kg |  |
| C[C@]1(Cn2ccnn2)[C@H](C(=O)O)N2C(=O)C[C@H]2S1(=O)=O [Tazobactam] | 8 | 8 | 64 | >32 | 32 | 8 | 2 | > 16 | 980 | 71 | > 200 | 4 | 1.19 × 10^7-1.6 × 10^7 CFU/thigh |  |  | >200:>200 mg/kg | > 200 |
